Source: patent publication US8946215B2, “Hydroxy-substituted imidazo[1,2-a]pyridinecarboxamides and their use” (Bayer Pharma Aktiengesellschaft, priority 2012, dated 2015)
Structures can show the parent of a compound that is named as a salt.

Molecular target: T1, recombinant guanylate cyclase reporter cell line (Rattus norvegicus, UniProt P19686+P20595)
T1 construct: expressed in transfected cells
T1 sequence (P20595 1-619): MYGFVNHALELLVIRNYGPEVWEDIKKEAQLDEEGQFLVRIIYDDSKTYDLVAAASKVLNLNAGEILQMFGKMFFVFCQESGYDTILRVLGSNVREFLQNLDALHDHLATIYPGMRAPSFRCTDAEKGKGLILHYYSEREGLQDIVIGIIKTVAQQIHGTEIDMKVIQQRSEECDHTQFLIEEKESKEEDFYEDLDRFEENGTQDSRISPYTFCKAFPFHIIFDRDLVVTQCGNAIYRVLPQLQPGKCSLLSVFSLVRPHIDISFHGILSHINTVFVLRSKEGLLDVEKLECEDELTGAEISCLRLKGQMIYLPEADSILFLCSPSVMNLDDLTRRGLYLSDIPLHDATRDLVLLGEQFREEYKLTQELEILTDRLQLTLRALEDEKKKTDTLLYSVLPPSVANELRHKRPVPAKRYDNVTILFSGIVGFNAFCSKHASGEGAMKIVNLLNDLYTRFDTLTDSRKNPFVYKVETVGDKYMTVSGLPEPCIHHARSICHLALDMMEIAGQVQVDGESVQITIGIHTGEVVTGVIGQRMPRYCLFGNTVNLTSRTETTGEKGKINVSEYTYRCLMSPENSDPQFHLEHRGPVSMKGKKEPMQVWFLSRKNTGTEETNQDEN
T1 sequence (P19686 1-690): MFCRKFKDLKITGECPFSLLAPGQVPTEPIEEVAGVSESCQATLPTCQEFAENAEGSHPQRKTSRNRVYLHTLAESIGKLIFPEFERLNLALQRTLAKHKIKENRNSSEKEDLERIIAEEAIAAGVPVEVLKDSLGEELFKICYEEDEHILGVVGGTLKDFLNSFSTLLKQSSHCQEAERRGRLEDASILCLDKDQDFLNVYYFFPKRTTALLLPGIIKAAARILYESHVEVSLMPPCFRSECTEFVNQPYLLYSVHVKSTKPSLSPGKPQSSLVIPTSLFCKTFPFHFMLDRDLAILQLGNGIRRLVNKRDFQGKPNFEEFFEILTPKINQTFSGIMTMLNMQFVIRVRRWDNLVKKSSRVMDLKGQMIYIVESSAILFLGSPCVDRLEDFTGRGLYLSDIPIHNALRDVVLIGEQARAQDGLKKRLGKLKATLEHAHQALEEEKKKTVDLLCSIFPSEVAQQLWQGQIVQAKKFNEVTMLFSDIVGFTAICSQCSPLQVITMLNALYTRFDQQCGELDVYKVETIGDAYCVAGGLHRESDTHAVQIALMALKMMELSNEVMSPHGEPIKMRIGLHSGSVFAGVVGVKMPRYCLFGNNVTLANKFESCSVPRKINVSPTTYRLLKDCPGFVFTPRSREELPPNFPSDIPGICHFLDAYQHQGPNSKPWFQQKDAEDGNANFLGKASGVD
Assay: Action on recombinant guanylate cyclase reporter cell line
Type: cell-based
Details: in some cases mean values obtained from individual determinations
In short: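 Cell-based reporter assay with recombinant guanylate cyclase expressed in a reporter cell line, per a published method. Activity reported as minimal effective concentration (MEC), in some cases as the mean of individual determinations.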

MEC (minimal effective concentration) | SMILES
3.0 µM | CCCC[C@H](CO)NC(=O)c1c(C)nc2c(OCc3c(F)cccc3F)cc(N3CCOCC3)cn12 [Example 63, 8-[(2,6-difluorobenzyl)oxy]-N-[(2R)-1-hydroxyhexan-2-yl]-2-methyl-6-(morpholin-4-yl)imidazo[1,2-a]pyridine-3-carboxamide]
2.0 µM | Cc1nc2c(OCc3c(F)cccc3F)cccn2c1C(=O)NC(CO)CO [Example 26]
0.3 µM | Cc1nc2c(OCc3c(F)cccc3F)cc(Cl)cn2c1C(=O)N[C@@H](CO)CCCO [Example 127, 6-Chloro-8-[(2,6-difluorobenzyl)oxy]-N-[(2R)-1,5-dihydroxypentan-2-yl]-2-methylimidazo[1,2-a]-pyridine-3-carboxamide]
0.1 µM | Cc1nc2c(OCc3c(F)cccc3F)cccn2c1C(=O)NC(CO)CCC(O)C(F)(F)F (single isomer, unassigned) [Example 138, 8-[(2,6-Difluorobenzyl)oxy]-2-methyl-N-(6,6,6-trifluoro-1,5-dihydroxyhexan-2-yl)imidazo[1,2-a]-pyridine-3-carboxamide]
0.1 µM | CCCC[C@H](CO)NC(=O)c1c(C)nc2c(OCc3cccc(F)c3)cccn12 [Example 6]
0.3 µM | CCCC[C@H](CO)NC(=O)c1c(C)nc2c(OCc3cccc(F)c3F)cccn12 [Example 10]
3.0 µM | Cc1nc2c(OCc3c(F)cccc3F)cccn2c1C(=O)N[C@@H](CO)CCO [Example 129, 8-[(2,6-difluorobenzyl)oxy]-N-[(2R)-1,4-dihydroxybutan-2-yl]-2-methylimidazo[1,2-a]pyridine-3-carboxamide]
0.3 µM | Cc1nc2c(OCc3c(F)cccc3F)cc(Cl)cn2c1C(=O)N[C@@H](CO)CCO [Example 128, 6-chloro-8-[(2,6-difluorobenzyl)oxy]-N-[(2R)-1,4-dihydroxybutan-2-yl]-2-methylimidazo[1,2-a]pyridine-3-carboxamide]

Second part, the compound before the results:

SMILES | MEC (minimal effective concentration)
Cc1nc2c(OCc3c(F)cccc3F)cccn2c1C(=O)NC(CCCC(F)(F)F)C(C)(C)O (single isomer, unassigned; ent-8) [Example 156, ent-8-[(2,6-Difluorobenzyl)oxy]-2-methyl-N-(7,7,7-trifluoro-2-hydroxy-2-methylheptan-3-yl)-imidazo[1,2-a]pyridine-3-carboxamide] | 0.03 µM
Cc1nc2c(OCC3CCCCC3)cccn2c1C(=O)N[C@@H]1CCCC[C@H]1O (racemic) [Example 78, (rac)-8-(cyclohexylmethoxy)-N-[(trans)-2-hydroxycyclohexyl]-2-methylimidazo[1,2-a]-pyridine-3-carboxamide] | 0.3 µM
Cc1nc2c(OCc3c(F)cccc3F)cccn2c1C(=O)NC1(CO)CCC1 [Example 125, 8-[(2,6-Difluorobenzyl)oxy]-N-[1-(hydroxymethyl)cyclobutyl]-2-methylimidazo[1,2-a]pyridine-3-carboxamide] | 0.3 µM
Cc1nc2c(OCC3CCC3)cccn2c1C(=O)NCCC1(O)CCCCC1 [Example 99, 8-(cyclobutylmethoxy)-N-[2-(1-hydroxycyclohexyl)ethyl]-2-methylimidazo[1,2-a]pyridine-3-carboxamide] | 3.0 µM
Cc1nc2c(OCc3c(F)cccc3F)cccn2c1C(=O)NCCO [Example 21] | 1.0 µM
CCCC[C@@H](NC(=O)c1c(C)nc2c(OCc3c(F)cccc3F)cccn12)C(O)C(F)(F)F (stereo partly drawn) [Example 141, 8-[(2,6-Difluorobenzyl)oxy]-2-methyl-N-[(3R)-1,1,1-trifluoro-2-hydroxyheptan-3-yl]imidazo[1,2-a]pyridine-3-carboxamide] | 0.1 µM
Cc1nc2c(OCC3CCCCC3)cccn2c1C(=O)NCCCO [Example 82, 8-(cyclohexylmethoxy)-N-(3-hydroxypropyl)-2-methylimidazo[1,2-a]pyridine-3-carboxamide] | 0.3 µM
Cc1nc2c(OCc3c(F)cccc3F)cccn2c1C(=O)NCC1CCCC[C@H]1O (stereo partly drawn) [Example 27] | 0.3 µM
Cc1nc2c(OCc3c(F)cccc3F)cccn2c1C(=O)NC(CCC(F)(F)F)C(C)(C)O (racemic) [Example 149, rac-8-[(2,6-difluorobenzyl)oxy]-2-methyl-N-(6,6,6-trifluoro-2-hydroxy-2-methylhexan-3-yl)imidazo[1,2-a]pyridine-3-carboxamide] | 0.1 µM
Cc1nc2c(OCc3c(F)cccc3F)cccn2c1C(=O)NC(c1ccc(Cl)cc1)C(C)(C)O (racemic) [Example 151, rac-N-[1-(4-chlorophenyl)-2-hydroxy-2-methylpropyl]-8-[(2,6-difluorobenzyl)oxy]-2-methylimidazo[1,2-a]pyridine-3-carboxamide] | 0.3 µM
Cc1nc2c(OCC3CCCCC3)cccn2c1C(=O)NC(CO)(CO)CO [Example 77, 8-(cyclohexylmethoxy)-N-[1,3-dihydroxy-2-(hydroxymethyl)propan-2-yl]-2-methylimidazo[1,2-a]pyridine-3-carboxamide formate] | 0.3 µM
Cc1nc2c(OCc3c(F)cccc3F)cccn2c1C(=O)N[C@@H](CO)C(C)(C)C [Example 35] | 0.3 µM
Cc1nc2c(OCc3c(F)cccc3F)cccn2c1C(=O)NC[C@@H](O)c1ccccc1 [Example 32] | 1.0 µM
Cc1nc2c(OCc3ncccc3F)cccn2c1C(=O)NC(CC(F)(F)F)C(C)(C)O (racemic) [Example 180, rac-8-[(3-Fluoropyridin-2-yl)methoxy]-2-methyl-N-(1,1,1-trifluoro-4-hydroxy-4-methylpentan-3-yl)imidazo[1,2-a]pyridine-3-carboxamide] | 1 µM
CC[C@H](C)[C@@H](CO)NC(=O)c1c(C)nc2c(OCC3CCCCC3)cccn12 [Example 91, 8-(cyclohexylmethoxy)-N-[(2S,3S)-1-hydroxy-3-methylpentan-2-yl]-2-methylimidazo[1,2-a]pyridine-3-carboxamide] | 1.0 µM
Cc1cc(OCc2ncccc2F)c2nc(C)c(C(=O)NC(CCCC(F)(F)F)C(C)(C)O)n2c1 (racemic) [Example 178, rac-8-[(3-fluoropyridin-2-yl)methoxy]-2,6-dimethyl-N-(7,7,7-trifluoro-2-hydroxy-2-methylheptan-3-yl)imidazo[1,2-a]pyridine-3-carboxamide trifluoroacetate] | 1 µM
Cc1nc2c(OCC3CCC3)cccn2c1C(=O)NCCOCCO [Example 98, 8-(cyclobutylmethoxy)-N-[2-(2-hydroxyethoxy)ethyl]-2-methylimidazo[1,2-a]pyridine-3-carboxamide] | 3.0 µM
CCC(CO)NC(=O)c1c(C)nc2c(OCC3CCCCC3)cccn12 (racemic) [Example 69, (rac)-8-(cyclohexylmethoxy)-N-(1-hydroxybutan-2-yl)-2-methylimidazo)[1,2-a]pyridine-3-carboxamide formate] | 0.1 µM
Cc1nc2c(OCc3cccc(Cl)c3Cl)cccn2c1C(=O)NCCC1(O)CCCC1 [Example 47, 8-[(2,3-dichlorobenzyl)oxy]-N-[2-(1-hydroxycyclopentyl)ethyl]-2-methylimidazo[1,2-a]-pyridine-3-carboxamide] | 0.3 µM
